Key:
[1] = test system: PC-3; test: Cytotoxicity against human PC3 cells after 48 hrs by MTT assay; type: functional, cell-based; settings: PC-3, 48 h
[2] = test system: HepG2; test: Cytotoxicity against human HepG2 cells after 48 hrs by MTT assay; type: functional, cell-based; settings: HepG2, 48 h
[3] = test system: A549; test: Cytotoxicity against human A549 cells after 48 hrs by MTT assay; type: functional, cell-based; settings: A549, 48 h
[4] = test system: MCF7; test: Cytotoxicity against human MCF7 cells after 48 hrs by MTT assay; type: functional, cell-based; settings: MCF7, 48 h
[5] = test system: PC-3; test: Potency index, ratio of IC50 for fluorouracil to IC50 for test compound for human PC3 cells; type: functional
[6] = test system: HepG2; test: Potency index, ratio of IC50 for fluorouracil to IC50 for test compound for human HepG2 cells; type: functional
[7] = test system: A549; test: Potency index, ratio of IC50 for fluorouracil to IC50 for test compound for human A549 cells; type: functional
[8] = test system: PC-3; test: Cell cycle arrest in human PC3 cells assessed as accumulation at Sub-G1 phase at 2 uM after 48 hrs by flow cytometry (Rvb=0.37%); type: functional
[9] = test system: PC-3; test: Cell cycle arrest in human PC3 cells assessed as accumulation at G0/G1 phase at 2 uM after 48 hrs by flow cytometry (Rvb=60.55%); type: functional
[10] = test system: PC-3; test: Cell cycle arrest in human PC3 cells assessed as accumulation at S phase at 2 uM after 48 hrs by flow cytometry (Rvb=21.10%); type: functional
[11] = test system: PC-3; test: Cell cycle arrest in human PC3 cells assessed as accumulation at G2/M phase at 2 uM after 48 hrs by flow cytometry (Rvb=16.72%); type: functional
[12] = test system: PC-3; test: Cell cycle arrest in human PC3 cells assessed as accumulation at Sub-G1 phase at 4 uM after 48 hrs by flow cytometry (Rvb=0.37%); type: functional
[13] = test system: PC-3; test: Cell cycle arrest in human PC3 cells assessed as accumulation at G0/G1 phase at 4 uM after 48 hrs by flow cytometry (Rvb=60.55%); type: functional
[14] = test system: PC-3; test: Cell cycle arrest in human PC3 cells assessed as accumulation at S phase at 4 uM after 48 hrs by flow cytometry (Rvb=21.10%); type: functional
[15] = test system: PC-3; test: Cell cycle arrest in human PC3 cells assessed as accumulation at G2/M phase at 4 uM after 48 hrs by flow cytometry (Rvb=16.72%); type: functional
[16] = test system: PC-3; test: Cell cycle arrest in human PC3 cells assessed as accumulation at Sub-G1 phase at 8 uM after 48 hrs by flow cytometry (Rvb=0.37%); type: functional
[17] = test system: PC-3; test: Cell cycle arrest in human PC3 cells assessed as accumulation at G0/G1 phase at 8 uM after 48 hrs by flow cytometry (Rvb=60.55%); type: functional
[18] = test system: PC-3; test: Cell cycle arrest in human PC3 cells assessed as accumulation at S phase at 8 uM after 48 hrs by flow cytometry (Rvb=21.10%); type: functional
[19] = test system: PC-3; test: Cell cycle arrest in human PC3 cells assessed as accumulation at G2/M phase at 8 uM after 48 hrs by flow cytometry (Rvb=16.72%); type: functional
[20] = test system: PC-3; test: Cell cycle arrest in human PC3 cells assessed as accumulation at G2/M phase after 48 hrs by flow cytometry; type: functional, cell-based

| SMILES | IC50 [1] [µM] | IC50 [2] [µM] | IC50 [3] [µM] | IC50 [4] [µM] | other results |
| --- | --- | --- | --- | --- | --- |
| COc1cc(-c2nnc3n2NC(c2ccco2)C(C(=O)c2ccco2)S3)cc(OC)c1OC (centres undefined) | 58.3 | > 100 | 68.7 | > 100 | – |
| COc1cc(-c2nnc3n2NC(c2cccs2)C(C(=O)c2ccccc2)S3)cc(OC)c1OC (centres undefined) | 86.3 | > 100 | 69.4 | > 100 | – |
| COc1cc(-c2nnc3n2NC(c2ccco2)C(C(=O)c2ccc(F)cc2)S3)cc(OC)c1OC (centres undefined) | 27.7 | > 100 | 53.7 | > 100 | Ratio IC50 [5]: 0.62 |
| COc1cc(-c2nnc3n2NC(c2ccco2)C(C(=O)c2ccc(O)cc2)S3)cc(OC)c1OC (centres undefined) | 38.3 | > 100 | 93.4 | 88.9 | – |
| COc1cc(-c2nnc3n2NC(c2ccco2)C(C(=O)c2ccccc2)S3)cc(OC)c1OC (centres undefined) | 64.3 | 90.9 | 33.4 | 39.8 | – |
| COc1cc(-c2nnc3n2NC(c2ccco2)C(C(=O)c2ccc(Br)cc2)S3)cc(OC)c1OC (centres undefined) | 36.4 | > 100 | 42.1 | > 100 | Ratio IC50 [5]: 0.62 |
| COc1cc(-c2nnc3n2NC(c2ccco2)C(C(=O)C2CC2)S3)cc(OC)c1OC (centres undefined) | 95.2 | > 100 | > 100 | > 100 | – |
| COc1cc(-c2nnc3n2NC(c2ccco2)C(C(=O)c2cccc4ccccc24)S3)cc(OC)c1OC (centres undefined) | > 100 | 33.9 | > 100 | > 100 | – |
| COc1cc(-c2nnc3n2NC(c2ccco2)C(C(=O)c2ccccc2C)S3)cc(OC)c1OC (centres undefined) | 88.4 | 63 | 80 | 69.9 | – |
| COc1cc(-c2nnc3n2NC(c2ccco2)C(C(=O)c2ccc(-c4ccccc4)cc2)S3)cc(OC)c1OC (centres undefined) | 45.9 | > 100 | > 100 | > 100 | – |
| COc1cc(-c2nnc3n2NC(c2ccco2)C(C(=O)c2ccc(C(F)(F)F)cc2)S3)cc(OC)c1OC (centres undefined) | 77.5 | > 100 | 37.1 | 33.6 | – |
| COc1cc(-c2nnc3n2NC(c2ccco2)C(C(=O)c2ccccc2F)S3)cc(OC)c1OC (centres undefined) | > 100 | > 100 | 78.7 | 94.8 | – |
| O=c1[nH]cc(F)c(=O)[nH]1 [FLUOROURACIL] | 22.6 | – | 22.3 | 19.4 | – |
| COc1cccc(C(=O)C2Sc3nnc(-c4cc(OC)c(OC)c(OC)c4)n3NC2c2ccco2)c1 (centres undefined) | 84.6 | > 100 | > 100 | > 100 | – |
| COc1cc(C(=O)C2Sc3nnc(-c4cc(OC)c(OC)c(OC)c4)n3NC2c2ccco2)cc(OC)c1OC (centres undefined) | 52.2 | > 100 | 48.3 | > 100 | – |
| COc1ccc(C(=O)C2Sc3nnc(-c4cc(OC)c(OC)c(OC)c4)n3NC2c2cccs2)cc1 (centres undefined) | 95.9 | 68 | > 100 | 49.5 | – |
| COc1cc(-c2nnc3n2NC(c2ccco2)C(C(=O)c2ccc(C)cc2)S3)cc(OC)c1OC (centres undefined) | 7.5 | 17.4 | > 100 | > 100 | Ratio IC50 [5]: 3; Ratio IC50 [6]: 2.7 |
| COc1cc(-c2nnc3n2NC(c2ccco2)C(C(=O)c2cccs2)S3)cc(OC)c1OC (centres undefined) | 46.2 | 64.1 | 78.7 | > 100 | – |
| COc1ccc(C(=O)C2Sc3nnc(-c4cc(OC)c(OC)c(OC)c4)n3NC2c2ccco2)cc1 (centres undefined) | > 100 | > 100 | > 100 | > 100 | – |
| COc1cc(-c2nnc3n2NC(c2cccs2)C(C(=O)c2ccc(C)cc2)S3)cc(OC)c1OC (centres undefined) | 5.09 | 3.7 | 12.7 | 28.4 | Ratio IC50 [5]: 3; Ratio IC50 [6]: 11; Ratio IC50 [7]: 2; Activity [8]: 0.92%; Activity [9]: 33.85%; Activity [10]: 15.52%; Activity [11]: 47.22%; Activity [12]: 0.3%; Activity [13]: 29.4%; Activity [14]: 12.53%; Activity [15]: 57%; Activity [16]: 0.38%; Activity [17]: 23.69%; Activity [18]: 9.79%; Activity [19]: 65.1%; Activity [20]: Dose-dependent effect |
| COc1cc(-c2nnc3n2NC(c2ccco2)C(C(=O)c2ccc([N+](=O)[O-])cc2)S3)cc(OC)c1OC (centres undefined) | 27.9 | 87.8 | > 100 | > 100 | Ratio IC50 [5]: 0.62 |
| COc1cc(-c2nnc3n2NC(c2ccco2)C(C(=O)c2ccc(Cl)cc2)S3)cc(OC)c1OC (centres undefined) | 67.8 | 78.6 | 51.4 | > 100 | – |
| COc1cc(C(=O)C2Sc3nnc(-c4cc(OC)c(OC)c(OC)c4)n3NC2c2cccs2)cc(OC)c1OC (centres undefined) | > 100 | > 100 | > 100 | 71 | – |
| COc1cc(-c2nnc3n2NC(c2ccco2)C(C(=O)c2cccc(Br)c2)S3)cc(OC)c1OC (centres undefined) | 63.9 | > 100 | 36.9 | 91.8 | – |
| COc1cc(-c2nnc3n2NC(c2ccco2)C(C(=O)c2ccc(F)c(F)c2)S3)cc(OC)c1OC (centres undefined) | 36 | 52.4 | 93.7 | 73.2 | Ratio IC50 [5]: 0.62 |
| COc1cc(-c2nnc3n2NC(c2cccs2)C(C(=O)c2ccc(F)cc2)S3)cc(OC)c1OC (centres undefined) | 27.4 | 54.2 | 45 | 43.6 | – |
| COc1cc(-c2nnc3n2NC(c2cccs2)C(C(=O)c2ccc(Cl)cc2)S3)cc(OC)c1OC (centres undefined) | 32.5 | 13.2 | 20.1 | 42.8 | – |
